# Like-named read-outs stand apart in the source and are kept apart here.
# Tests used:
# BRC4–RAD51 interaction = molecular target: T1, BRC4–RAD51 interaction (Homo sapiens, UniProt Q06609); assay: Competitive biochemical ELISA assay (biotinylated BRC4 peptide vs RAD51); format: binding
# T1 construct: purchased Creative Biomart (RAD51); Life Technologies (BRC4 peptide)
# T1 sequence (Q06609 1-339): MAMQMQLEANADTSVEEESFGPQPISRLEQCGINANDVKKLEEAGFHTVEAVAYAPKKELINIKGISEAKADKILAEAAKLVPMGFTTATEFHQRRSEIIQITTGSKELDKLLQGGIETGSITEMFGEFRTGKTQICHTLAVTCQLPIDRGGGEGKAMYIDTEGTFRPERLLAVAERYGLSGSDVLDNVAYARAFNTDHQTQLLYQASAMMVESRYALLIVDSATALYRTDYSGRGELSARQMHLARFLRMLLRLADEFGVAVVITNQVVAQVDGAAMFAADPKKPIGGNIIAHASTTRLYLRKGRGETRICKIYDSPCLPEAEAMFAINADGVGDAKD
# Experimental: To investigate the mechanism of action of the new dihydroquinolone pyrazoline derivatives, different biological assays were performed. As a primary screening, the ability of compounds 5d–57d to inhibit RAD51-BRCA2 interaction was investigated with a competitive biochemical ELISA assay against the parent compound 4d (Table 1). This assay is effective in evaluating the ability of new molecules to compete with BRC4 to bind to RAD51.[30] […] 18d–21d, 23d, 25d, 30d, and 31d were active at micromolar range, all very similar to the initial hit. […] The replacement of the aromatic ring A in combination with the substitution of the pyrazoline nitrogen with either propionyl or acetyl chain yielded compounds 33d–51d. […] As expected for PPI disruptors, the SARs of the new series of dihydroquinolone pyrazoline were rather complex to rationalize, with many cliffs and spikes that were difficult to understand. […] Accordingly, 4d, 12d, 18d, 20d–23d, 30d, 31d, 33d–36d, 39d, 45d, and 49d were submitted to cell-based study (Table 2).
# Competitive ELISA screening assay using biotinylated BRC4 peptide to disrupt the BRC4–RAD51 interaction was performed by modifying the method described by Rajendra et al.[33] BRC4-biotinylated peptide (N-term biotin-[…] from Life Technologies) was used to coat 384-well plates (Nunc). After washing with PBS containing 0.05% Tween-20 (PBST) and blocking with the solution BSA 1% /PBST, overnight hybridization with human RAD51 protein (NP_002866 Creative Biomart, NY) was performed. Test compounds were added in dose response from 0.01 to 100 μM in triplicate with constant DMSO 1%. Antibody raised against RAD51 (Millipore) and HRP-secondary antibody staining to develop the 3,3′,5,5′-tetramethylbenzidine signal (Sigma) quenched with 1 M HCl was used as the assay readout. Colorimetric measure was read on a Victor5 (PerkinElmer) plate reader. BRC4 and Rad51 were included in the assay as positive control. Results were analyzed by using GraphPad software.
# [1] = tested on: homologous recombination in BxPC3 cells; assay: Homologous recombination assay (two-plasmid recombination, real-time PCR); format: cell-based, human; conditions: Homo sapiens, BXPC-3; 40 μM, BxPC3, 5 h during plasmid transfection
# Description: Our working hypothesis is that compounds disrupting RAD51-BRCA2 interaction should affect HR repair and increase the efficacy of PARPi in treating breast, ovarian, and pancreatic cancer. For its clinical relevance, pancreatic adenocarcinoma was selected as our final model for cell-based experiments, and BxPC3 cells were selected for a straightforward comparison with the previously reported triazole derivatives.[30],[31] BxPC3 is derived from a human adenocarcinoma that expresses fully functional BRCA2.[38] As shown in Table 2 and according to the rationale of our hypothesis, our preliminary screening consisted of verifying the efficacy of compounds in inhibiting cell HR and/or in increasing the antiproliferative effect of olaparib. […] HR activity was assessed by evaluating the recombination rate between two transfected plasmids, using a commercially available assay. […] As for the emissucinic acid-containing compounds (4d, 12d, 18d, 20d–23d, 30d, 31d), one of the reasons for their lower potency in cells might be the general poor permeability, likely related to the ionizable acid moiety. […] We then characterized 35d in additional biophysical and cell-based experiments.
# Homologous recombination (HR) was assessed by using a commercially available assay (Norgen). This assay is based on cell transfection with two plasmids that, upon cell entry, recombine. The efficiency of HR can be assessed by real-time PCR, using primer mixtures included in the assay kit. Different primer mixtures allow one to discriminate between the original plasmid backbones and their recombination product.
# BxPC3 cells (2 × 10^5 per well) were seeded in a 24-well plate and allowed to adhere overnight. Co-transfection with the two plasmids was performed in Lipofectamine 2000 (Invitrogen) according to the manufacturer’s instructions. During transfection (5 h), cells were exposed to different doses of RAD51-BRCA2 disruptors, dissolved in RPMI in the presence of 0.6% DMSO. After washing with PBS, cells were harvested, and DNA was isolated using Illustra Tissue and Cell Genomic Prep Mini Spin kit (GE Healthcare). Sample concentration was measured using an ONDA Nano Genius photometer. The efficiency of HR was assessed by real-time PCR, using 25 ng of template, the primer mixtures included in the assay kit and following the protocol indicated by the manufacturer. Data analysis was based on the ΔΔCt method: [recombination product/backbone plasmids]^treated versus [recombination product/backbone plasmids]^control.
# [2] = competition with BRC4 for RAD51, triplicate, ± standard deviation, NA = not active, racemic mixtures unless enantiomer named, read-out: EC50 (μM) on ELISA assay
# [3] = competition with BRC4 for RAD51, triplicate, ± standard deviation, NA = not active, racemic mixtures unless enantiomer named
SMILES,EC50 (BRC4–RAD51 interaction; [2]) [µM],other results
"O=C(O)CCC(=O)N1N=C(c2c(-c3ccccc3)c3cc(Cl)ccc3[nH]c2=O)CC1c1ccc(F)cc1 (stereo not drawn) [Compound 4d, 4-(3-(6-Chloro-2-oxo-4-phenyl-1,2-dihydroquinolin-3-yl)-5-(4-fluorophenyl)-4,5-dihydro-1H-pyrazol-1-yl)-4-oxobutanoic Acid]",16 ± 4,"EC50 (BRC4–RAD51 interaction; Table 2, compounds selected for cell-based study, read-out: EC50 ELISA): 16 ± 4 µM; inhibition at 40 µM [1]: 10%"
"CC(=O)N1N=C(c2c(-c3ccccc3)c3cc(Cl)ccc3[nH]c2=O)CC1c1ccc(F)cc1 (stereo not drawn) [Compound 5d, 3-(1-Acetyl-5-(4-fluorophenyl)-4,5-dihydro-1H-pyrazol-3-yl)-6-chloro-4-phenylquinolin-2(1H)-one]",50 ± 10,–
"CCC(=O)N1N=C(c2c(-c3ccccc3)c3cc(Cl)ccc3[nH]c2=O)CC1c1ccc(F)cc1 (stereo not drawn) [Compound 6d, 6-Chloro-3-(5-(4-fluorophenyl)-1-propionyl-4,5-dihydro-1H-pyrazol-3-yl)-4-phenylquinolin-2(1H)-one]",34 ± 3,–
"O=C(O)CCC(=O)N1N=C(c2c(-c3ccccc3)c3cc(Cl)ccc3[nH]c2=O)CC1c1ccc(Cl)cc1 (stereo not drawn) [Compound 11d, 4-(3-(6-Chloro-2-oxo-4-phenyl-1,2-dihydroquinolin-3-yl)-5-(4-chlorophenyl)-4,5-dihydro-1H-pyrazol-1-yl)-4-oxobutanoic Acid]",59 ± 8,–
"O=C(O)CCC(=O)N1N=C(c2c(-c3ccccc3)c3cc(Cl)ccc3[nH]c2=O)CC1c1ccc(C(F)(F)F)cc1 (stereo not drawn) [Compound 16d, 4-(3-(6-Chloro-2-oxo-4-phenyl-1,2-dihydroquinolin-3-yl)-5-(4-(trifluoromethyl)phenyl)-4,5-dihydro-1H-pyrazol-1-yl)-4-oxobutanoic Acid]",29 ± 2,–
"O=C(O)CCC(=O)N1N=C(c2c(-c3ccccc3)c3cc(Cl)ccc3[nH]c2=O)CC1c1ccc(-c2ccc(Cl)cc2)cc1 (stereo not drawn) [Compound 19d, 4-(3-(6-Chloro-2-oxo-4-phenyl-1,2-dihydroquinolin-3-yl)-5-(4′-chloro-[1,1′-biphenyl]-4-yl)-4,5-dihydro-1H-pyrazol-1-yl)-4-oxobutanoic Acid]",25 ± 5,–
"CCn1ncc2cc(C3CC(c4c(-c5ccccc5)c5cc(Cl)ccc5[nH]c4=O)=NN3C(=O)CCC(=O)O)ccc21 (stereo not drawn) [Compound 24d, 4-(3-(6-Chloro-2-oxo-4-phenyl-1,2-dihydroquinolin-3-yl)-5-(1-ethyl-1H-indazol-5-yl)-4,5-dihydro-1H-pyrazol-1-yl)-4-oxobutanoic Acid]",–,EC50 (μM) on ELISA assay (BRC4–RAD51 interaction; [3]): inactive
"CCn1cc2cc(C3CC(c4c(-c5ccccc5)c5cc(Cl)ccc5[nH]c4=O)=NN3C(=O)CCC(=O)O)ccc2n1 (stereo not drawn) [Compound 25d, 4-(3-(6-Chloro-2-oxo-4-phenyl-1,2-dihydroquinolin-3-yl)-5-(2-ethyl-2H-indazol-5-yl)-4,5-dihydro-1H-pyrazol-1-yl)-4-oxobutanoic Acid]",28 ± 4,–
"CCCn1cc(-c2ccc(C3CC(c4c(-c5ccccc5)c5cc(Cl)ccc5[nH]c4=O)=NN3C(=O)CCC(=O)O)cc2)cn1 (stereo not drawn) [Compound 32d, 4-(3-(6-Chloro-2-oxo-4-phenyl-1,2-dihydroquinolin-3-yl)-5-(4-(1-propyl-1H-pyrazol-4-yl)phenyl)-4,5-dihydro-1H-pyrazol-1-yl)-4-oxobutanoic Acid]",65 ± 5,–
"CC(=O)N1N=C(c2c(-c3ccccc3)c3cc(Cl)ccc3[nH]c2=O)CC1c1ccc(Br)cc1 (stereo not drawn) [Compound 37d, 3-(1-Acetyl-5-(4-bromophenyl)-4,5-dihydro-1H-pyrazol-3-yl)-6-chloro-4-phenylquinolin-2(1H)-one]",38 ± 7,–
"COc1ccc(C2CC(c3c(-c4ccccc4)c4cc(Cl)ccc4[nH]c3=O)=NN2C(C)=O)cc1 (stereo not drawn) [Compound 38d, 3-(1-Acetyl-5-(4-methoxyphenyl)-4,5-dihydro-1H-pyrazol-3-yl)-6-chloro-4-phenylquinolin-2(1H)-one]",–,EC50 (μM) on ELISA assay (BRC4–RAD51 interaction; [3]): inactive
"CC(=O)N1N=C(c2c(-c3ccccc3)c3cc(Cl)ccc3[nH]c2=O)CC1c1ccc(-c2ccc(Cl)cc2)cc1 (stereo not drawn) [Compound 42d, 3-(1-Acetyl-5-(4′-chloro-[1,1′-biphenyl]-4-yl)-4,5-dihydro-1H-pyrazol-3-yl)-6-chloro-4-phenylquinolin-2(1H)-one]",45 ± 8,–
"CC(=O)N1N=C(c2c(-c3ccccc3)c3cc(Cl)ccc3[nH]c2=O)CC1c1ccc(-c2ccc(Br)cc2)cc1 (stereo not drawn) [Compound 43d, 3-(1-Acetyl-5-(4′-bromo-[1,1′-biphenyl]-4-yl)-4,5-dihydro-1H-pyrazol-3-yl)-6-chloro-4-phenylquinolin-2(1H)-one]",70 ± 15,–
"COc1ccc(-c2ccc(C3CC(c4c(-c5ccccc5)c5cc(Cl)ccc5[nH]c4=O)=NN3C(C)=O)cc2)cc1 (stereo not drawn) [Compound 44d, 3-(1-Acetyl-5-(4′-methoxy-[1,1′-biphenyl]-4-yl)-4,5-dihydro-1H-pyrazol-3-yl)-6-chloro-4-phenylquinolin-2(1H)-one]",70 ± 6,–
"CCn1ccc2cc(C3CC(c4c(-c5ccccc5)c5cc(Cl)ccc5[nH]c4=O)=NN3C(C)=O)ccc21 (stereo not drawn) [Compound 46d, 3-(1-Acetyl-5-(1-ethyl-1H-indol-5-yl)-4,5-dihydro-1H-pyrazol-3-yl)-6-chloro-4-phenylquinolin-2(1H)-one]",50 ± 15,–
"CCn1ncc2cc(C3CC(c4c(-c5ccccc5)c5cc(Cl)ccc5[nH]c4=O)=NN3C(C)=O)ccc21 (stereo not drawn) [Compound 47d, 3-(1-Acetyl-5-(1-ethyl-1H-indazol-5-yl)-4,5-dihydro-1H-pyrazol-3-yl)-6-chloro-4-phenylquinolin-2(1H)-one]",40 ± 3,–
"CCn1cc2cc(C3CC(c4c(-c5ccccc5)c5cc(Cl)ccc5[nH]c4=O)=NN3C(C)=O)ccc2n1 (stereo not drawn) [Compound 48d, 3-(1-Acetyl-5-(2-ethyl-2H-indazol-5-yl)-4,5-dihydro-1H-pyrazol-3-yl)-6-chloro-4-phenylquinolin-2(1H)-one]",–,EC50 (μM) on ELISA assay (BRC4–RAD51 interaction; [3]): inactive
"CCCn1cc2cc(C3CC(c4c(-c5ccccc5)c5cc(Cl)ccc5[nH]c4=O)=NN3C(C)=O)ccc2n1 (stereo not drawn) [Compound 50d, 3-(1-Acetyl-5-(2-propyl-2H-indazol-5-yl)-4,5-dihydro-1H-pyrazol-3-yl)-6-chloro-4-phenylquinolin-2(1H)-one]",–,EC50 (μM) on ELISA assay (BRC4–RAD51 interaction; [3]): inactive
"CCCn1cc(-c2ccc(C3CC(c4c(-c5ccccc5)c5cc(Cl)ccc5[nH]c4=O)=NN3C(C)=O)cc2)cn1 (stereo not drawn) [Compound 51d, 3-(1-Acetyl-5-(4-(1-propyl-1H-pyrazol-4-yl)phenyl)-4,5-dihydro-1H-pyrazol-3-yl)-6-chloro-4-phenylquinolin-2(1H)-one]",46 ± 9,–
